Experimental data from patent publication US8361964B2, “Growth hormone releasing factor (GRF) analogs and uses thereof” (Theratechnologies Inc., priority 2011, dated 2013).
Where a SMILES comes first, the peptide text is derived from it.

Experiments:
Growth Hormone secretion [1] = experiment: Growth Hormone secretion in female mice after subcutaneous GRF analog; assay type: in vivo; details: female CD-1 mice; 10 μg/mouse subcutaneous; plasma 10 minutes after injection
Description: CD-1 mice (female, weighting from 20 to 25 g) were obtained from Charles River Inc. Animals were used according to a protocol of the Animal Care Committee along with the principles of the Guide for the Care and Use of Experimental Animals of the Canadian Council on Animal Care. The animals were maintained on standard laboratory chow under a 12:12 light:dark cycle. They were kept in groups of 4 mice per cage.
At the day of the experiment, mice received a subcutaneous injection of GRF analog (10 μg/mouse dissolved in 20 mM sodium acetate (AcONa)+5% mannitol at pH 5). 10 minutes after injection, the mice were anesthezied with isolufrane. Blood samples (500 μl) were obtained by intra-cardiac puncture. Blood was placed into microtainer pre-treated with K3EDTA and immediately centrifuged at 13,000 RPM in a desktop centrifuge for 2 minutes. The plasma was collected and placed into a screwcap Eppendorf™ tube and quick frozen in liquid nitrogen. The samples were then kept at −80° C. until assayed. Determination of GH levels was performed as described below.
(§1) Rat and mouse plasma samples were vortexed carefully and centrifuged at 9,000 RPM for 2 min at 4° C. The dosage of GH levels was performed using the Rat/Mouse Growth Hormone ELISA kit from Millipore (Cat. # EZRMGH-45K). Sample supernatants were first diluted 20-fold with the GH ELISA assay buffer, and 10 μl of this dilution was added to the ELISA plate with 90 μl of GH EIA assay buffer. The remaining of the procedure was performed according to the manufacturer's instructions, and the data obtained were analyzed using GraphPad Prism™ software.
(§2) The GRF analogs described herein were tested for their ability to induce GH release in female mice and rats. […] The data are presented in Tables III (mice) and IV-V (rats).

Growth Hormone secretion [2] = experiment: Growth Hormone secretion in female rats after subcutaneous GRF analog; assay type: in vivo; details: female Sprague-Dawley rats; 10 μg/rat subcutaneous; plasma 0-60 minutes
Description: Sprague-Dawley rats (female, weighting from 250 to 300 g) were obtained from Charles River Inc. Animals were used according to a protocol of the Animal Care Committee along with the principles of the Guide for the Care and Use of Experimental Animals of the Canadian Council on Animal Care. The animals were maintained on standard laboratory chow under a 12:12 light:dark cycle. They were kept in groups of 4 rats per cage.
The animals were anesthetized with isoflurane 2.5%. A mid-section opening was made in the neck to expose the carotid artery. The carotid artery was canulated with polypropylene tubing (PE-50) to allow blood withdrawal. After surgical preparation, rats received a subcutaneous injection of GRF analog (10 μg/rat dissolved in 20 mM AcONa+5% mannitol at pH 5). For pharmacodynamics studies, blood samples (400 μL) were collected from 4 to 8 animals per group per time point. Blood samples (400 μl) were collected via the carotid catheter at 0, 10, 20, 30, 45 and 60 minutes after drug injection. Blood was placed into microtainer pre-treated with K3EDTA and immediately centrifuged at 13,000 RPM in a desktop centrifuge for 2 minutes. The plasma was collected and placed into a screw cap Eppendorf™ and quick frozen in liquid nitrogen. The samples were then kept at −80° C. until assayed. Determination of GH levels was performed as described below.
as §1, §2

Compound | GH levels 10 min (Growth Hormone secretion [1]) [ng/mL] | Mean AUC (GH Area Under the curve, GH concentration over time) (Growth Hormone secretion [2]) | Mean Cmax (ng/ml) of Growth Hormone secretion (Growth Hormone secretion [2]) [ng/mL]
CC/C=C/CC(=O)N[C@@H](Cc1ccc(O)cc1)C(=O)N[C@@H](C)C(=O)N[C@@H](CC(=O)O)C(=O)N[C@@H](C)C(=O)N[C@H](C(=O)N[C@@H](Cc1ccccc1)C(=O)N[C@H](C(=O)N[C@@H](CC(=O)O)C(=O)N[C@@H](CO)C(=O)N[C@@H](Cc1ccc(O)cc1)C(=O)N[C@@H](CCCNC(=N)N)C(=O)N[C@@H](CCCCN)C(=O)N[C@H](C(=O)N[C@@H](CC(C)C)C(=O)N[C@@H](C)C(=O)N[C@@H](CCC(N)=O)C(=O)N[C@@H](CC(C)C)C(=O)N[C@@H](CCCCN)C(=O)N[C@@H](C)C(=O)N[C@@H](CCCNC(=N)N)C(=O)N[C@@H](CCC(N)=O)C(=O)N[C@@H](CC(=O)O)C(=O)N[C@H](C(=O)N[C@@H](CC(C)C)C(=O)N[C@@H](C)C(=O)N[C@@H](CCCNC(=N)N)C(N)=O)[C@@H](C)CC)C(C)C)[C@@H](C)O)[C@@H](C)CC [SEQ ID NO: 20, Trans-3-hexenoyl-YADAIFTDSYRKVLAQLKARQDILAR-NH2] (HELM PEPTIDE1{[CC/C=C/CC(=O)[*:2]].Y.A.D.A.I.F.T.D.S.Y.R.K.V.L.A.Q.L.K.A.R.Q.D.I.L.A.R.[am]}$$$$V2.0) | 307.7 | 966 | 31.7
CC/C=C/CC(=O)N[C@@H](Cc1ccc(O)cc1)C(=O)N[C@@H](C)C(=O)N[C@@H](CC(=O)O)C(=O)N[C@@H](C)C(=O)N[C@H](C(=O)N[C@@H](Cc1ccccc1)C(=O)N[C@H](C(=O)N[C@@H](CC(=O)O)C(=O)N[C@@H](CO)C(=O)N[C@@H](Cc1ccc(O)cc1)C(=O)N[C@@H](CCCNC(=N)N)C(=O)N[C@@H](CCCCN)C(=O)N[C@H](C(=O)N[C@@H](CC(C)C)C(=O)N[C@@H](C)C(=O)N[C@@H](CCC(N)=O)C(=O)N[C@@H](CC(C)C)C(=O)N[C@@H](CO)C(=O)N[C@@H](C)C(=O)N[C@@H](CCCNC(=N)N)C(=O)N[C@@H](CCC(N)=O)C(=O)N[C@@H](CC(=O)O)C(=O)N[C@H](C(=O)N[C@@H](CC(C)C)C(=O)N[C@@H](C)C(=O)N[C@@H](CCCNC(=N)N)C(=O)N[C@@H](C)C(=O)N[C@@H](C)C(=O)N[C@@H](CCCNC(=N)N)C(=O)N[C@@H](C)C(=O)N[C@@H](C)C(=O)N[C@@H](CCCNC(=N)N)C(N)=O)[C@@H](C)CC)C(C)C)[C@@H](C)O)[C@@H](C)CC [SEQ ID NO: 27, Trans-3-hexenoyl-YADAIFTDSYRKVLAQLSARQDILARAARAAR-NH2] (HELM PEPTIDE1{[CC/C=C/CC(=O)[*:2]].Y.A.D.A.I.F.T.D.S.Y.R.K.V.L.A.Q.L.S.A.R.Q.D.I.L.A.R.A.A.R.A.A.R.[am]}$$$$V2.0) | 323.6 | 8350 | 455.6
CC/C=C/CC(=O)N[C@@H](Cc1ccc(O)cc1)C(=O)N[C@@H](C)C(=O)N[C@@H](CC(=O)O)C(=O)N[C@@H](C)C(=O)N[C@H](C(=O)N[C@@H](Cc1ccccc1)C(=O)N[C@H](C(=O)N[C@@H](CC(=O)O)C(=O)N[C@@H](CO)C(=O)N[C@@H](Cc1ccc(O)cc1)C(=O)N[C@@H](CCCNC(=N)N)C(=O)N[C@@H](CCCCN)C(=O)N[C@H](C(=O)N[C@@H](CC(C)C)C(=O)N[C@@H](C)C(=O)N[C@@H](CCC(N)=O)C(=O)N[C@@H](CC(C)C)C(=O)N[C@@H](CCCCN)C(=O)N[C@@H](C)C(=O)N[C@@H](CCCNC(=N)N)C(=O)N[C@@H](CCC(N)=O)C(=O)N[C@@H](CC(=O)O)C(=O)N[C@H](C(=O)N[C@@H](CC(C)C)C(=O)N[C@@H](C)C(=O)N[C@@H](CCCNC(=N)N)C(=O)N[C@@H](C)C(=O)N[C@@H](C)C(=O)N[C@@H](CCCNC(=N)N)C(=O)N[C@@H](C)C(=O)N[C@@H](C)C(=O)N[C@@H](CCCNC(=N)N)C(N)=O)[C@@H](C)CC)C(C)C)[C@@H](C)O)[C@@H](C)CC [SEQ ID NO: 31, Trans-3-hexenoyl-YADAIFTDSYRKVLAQLKARQDILARAARAAR-NH2] (HELM PEPTIDE1{[CC/C=C/CC(=O)[*:2]].Y.A.D.A.I.F.T.D.S.Y.R.K.V.L.A.Q.L.K.A.R.Q.D.I.L.A.R.A.A.R.A.A.R.[am]}$$$$V2.0) | 563.6 | 9093 | 459.9
CC/C=C/CC(=O)N[C@@H](Cc1ccc(O)cc1)C(=O)N[C@@H](C)C(=O)N[C@@H](CC(=O)O)C(=O)N[C@@H](C)C(=O)N[C@H](C(=O)N[C@@H](Cc1ccccc1)C(=O)N[C@H](C(=O)N[C@@H](CC(=O)O)C(=O)N[C@@H](CO)C(=O)N[C@@H](Cc1ccc(O)cc1)C(=O)N[C@@H](CCCNC(=N)N)C(=O)N[C@@H](CCCCN)C(=O)N[C@H](C(=O)N[C@@H](CC(C)C)C(=O)N[C@@H](C)C(=O)N[C@@H](CCC(N)=O)C(=O)N[C@@H](CC(C)C)C(=O)N[C@@H](CO)C(=O)N[C@@H](C)C(=O)N[C@@H](CCCNC(=N)N)C(=O)N[C@@H](CCC(N)=O)C(=O)N[C@@H](CC(=O)O)C(=O)N[C@H](C(=O)N[C@@H](CC(C)C)C(=O)N[C@@H](C)C(=O)N[C@@H](CCCNC(=N)N)C(N)=O)[C@@H](C)CC)C(C)C)[C@@H](C)O)[C@@H](C)CC [SEQ ID NO: 45, Trans-3-hexenoyl-YADAIFTDSYRKVLAQLSARQDILAR-NH2] (HELM PEPTIDE1{[CC/C=C/CC(=O)[*:2]].Y.A.D.A.I.F.T.D.S.Y.R.K.V.L.A.Q.L.S.A.R.Q.D.I.L.A.R.[am]}$$$$V2.0) | 102.1 | 1953 | 78.8
CC/C=C/CC(=O)N[C@@H](Cc1ccc(O)cc1)C(=O)N[C@@H](C)C(=O)N[C@@H](CC(=O)O)C(=O)N[C@@H](C)C(=O)N[C@H](C(=O)N[C@@H](Cc1ccccc1)C(=O)N[C@H](C(=O)N[C@@H](CC(=O)O)C(=O)N[C@@H](CO)C(=O)N[C@@H](Cc1ccc(O)cc1)C(=O)N[C@@H](CCCNC(=N)N)C(=O)N[C@@H](CCCCN)C(=O)N[C@H](C(=O)N[C@@H](CC(C)C)C(=O)N[C@@H](C)C(=O)N[C@@H](CCC(N)=O)C(=O)N[C@@H](CC(C)C)C(=O)N[C@@H](CO)C(=O)N[C@@H](C)C(=O)N[C@@H](CCCNC(=N)N)C(=O)N[C@@H](CCC(N)=O)C(=O)N[C@@H](CC(=O)O)C(=O)N[C@H](C(=O)N[C@@H](CC(C)C)C(=O)N[C@@H](CO)C(=O)N[C@H](CCCNC(=N)N)C(N)=O)[C@@H](C)CC)C(C)C)[C@@H](C)O)[C@@H](C)CC [SEQ ID NO: 46, Trans-3-hexenoyl-YADAIFTDSYRKVLAQLSARQDILS-r-NH2] (HELM PEPTIDE1{[CC/C=C/CC(=O)[*:2]].Y.A.D.A.I.F.T.D.S.Y.R.K.V.L.A.Q.L.S.A.R.Q.D.I.L.S.[dR].[am]}$$$$V2.0) | 10.6 | 1453 | 57.3
CC[C@H](C)[C@H](NC(=O)[C@H](C)NC(=O)[C@H](CC(=O)O)NC(=O)[C@@H](C)NC(=O)[C@@H](N)Cc1ccc(O)cc1)C(=O)N[C@@H](Cc1ccccc1)C(=O)N[C@H](C(=O)N[C@@H](CC(=O)O)C(=O)N[C@@H](CO)C(=O)N[C@@H](Cc1ccc(O)cc1)C(=O)N[C@@H](CCCNC(=N)N)C(=O)N[C@@H](CCCCN)C(=O)N[C@H](C(=O)N[C@@H](CC(C)C)C(=O)N[C@@H](C)C(=O)N[C@@H](CCC(N)=O)C(=O)N[C@@H](CC(C)C)C(=O)N[C@@H](CCCCN)C(=O)N[C@@H](C)C(=O)N[C@@H](CCCNC(=N)N)C(=O)N[C@@H](CCC(N)=O)C(=O)N[C@@H](CC(=O)O)C(=O)N[C@H](C(=O)N[C@@H](CC(C)C)C(=O)N[C@@H](CO)C(=O)N[C@H](CCCNC(=N)N)C(N)=O)[C@@H](C)CC)C(C)C)[C@@H](C)O [SEQ ID NO: 21, Y-a-DAIFTDSYRKVLAQLKARQDILS-r-NH2] (HELM PEPTIDE1{Y.[dA].D.A.I.F.T.D.S.Y.R.K.V.L.A.Q.L.K.A.R.Q.D.I.L.S.[dR].[am]}$$$$V2.0) | 104.4 | 3130 | 135.9
